Laboratory results: US10981908B2, “Aryl hydrocarbon receptor (AHR) modulator compounds” (PHENEX PHARMACEUTICALS AG, priority 2017, dated 2021)

Target: T1, AhR (Homo sapiens, UniProt P35869)
T1 construct: The HepG2 CYP1A1-Luc cells do express basal luciferase activity that can be increased via potent AhR agonists or decreased via potent AhR antagonists; endogenous in cells
T1 sequence (P35869 11-848): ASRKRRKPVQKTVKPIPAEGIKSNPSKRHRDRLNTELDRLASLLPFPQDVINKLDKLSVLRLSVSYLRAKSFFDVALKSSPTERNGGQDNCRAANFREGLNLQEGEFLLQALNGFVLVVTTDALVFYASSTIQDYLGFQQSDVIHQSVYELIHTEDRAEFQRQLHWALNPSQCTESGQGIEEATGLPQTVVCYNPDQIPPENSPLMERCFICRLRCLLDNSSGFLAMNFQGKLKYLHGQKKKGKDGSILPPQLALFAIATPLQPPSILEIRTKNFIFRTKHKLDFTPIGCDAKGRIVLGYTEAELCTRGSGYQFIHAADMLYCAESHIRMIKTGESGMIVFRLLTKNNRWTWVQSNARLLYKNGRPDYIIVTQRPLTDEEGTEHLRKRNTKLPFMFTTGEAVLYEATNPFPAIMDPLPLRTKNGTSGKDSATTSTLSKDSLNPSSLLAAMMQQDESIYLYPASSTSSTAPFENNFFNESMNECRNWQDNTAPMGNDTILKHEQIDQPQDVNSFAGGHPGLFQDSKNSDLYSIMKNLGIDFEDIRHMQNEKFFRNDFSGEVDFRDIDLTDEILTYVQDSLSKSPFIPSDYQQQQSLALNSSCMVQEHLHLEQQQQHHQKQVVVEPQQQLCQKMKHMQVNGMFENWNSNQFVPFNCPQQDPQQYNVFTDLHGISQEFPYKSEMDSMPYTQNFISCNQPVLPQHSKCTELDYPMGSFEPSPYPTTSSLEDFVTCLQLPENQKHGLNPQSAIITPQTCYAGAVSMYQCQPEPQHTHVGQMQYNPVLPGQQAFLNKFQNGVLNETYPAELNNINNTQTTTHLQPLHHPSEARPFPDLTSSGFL
Experiment: AhR direct luciferase reporter assay in HepG2 cells (HepG2 CYP1A1-LUC)
Type: cell-based
Details: luciferase activity after 18 hours, medium with no exogenous AhR agonist or 10 nM VAF347, read-out: AhR potency (AhR antagonistic potency, IC50 class)
Excerpt: AhR Direct Luciferase Reporter Assay in HepG2 Cells
A stable cell line (HepG2 CYP1A1-LUC) was used in which part of the promoter region of the human CYP1A1 gene is stably integrated into the genome of human HepG2 hepatocytes (DSZM #ACC 180) in front of a Photinus pyralis Firefly Luciferase gene. A 1210 bp fragment comprising part of the human CYP1A1 promoter was isolated via SacI and BgIII restriction digestion from Lightswitch Clone S714555 (SwitchGearGenomics) and inserted between the SacI and BgIII sites in pGL4.30 (Promega #E8481) in front of the Firefly Luciferase gene. The resulting vector was linearized with NotI, transfected into HepG2 cells (DSMZ #ACC 180) and stably transfected clones selected with 250 μg/ml Hygromycin B. After repetitive rounds of subcloning and testing for robustly regulated luciferase activity after AhR agonist stimulation, a stable clonal HepG2 CYP1A1-Luc cell line was selected.
The HepG2 CYP1A1-Luc cells do express basal luciferase activity that can be increased via potent AhR agonists or decreased via potent AhR antagonists, added to the growth medium of the cells.
In typical reporter assays performed with this cell line, cells are grown in 96-well plates and AhR modulators are titrated into the growth medium in serial dilutions in RPMI-1640 Medium (Sigma #R7509) supplemented with 8,6% fetal calf serum (Sigma #F7524) and containing either no exogenous AhR agonist or 10 nM of the potent AhR agonist VAF347 (Calbiochem #182690). Cells are further cultivated for 18 hours and luciferase activities are determined from extracts of cells in buffers containing D-Luciferine and ATvP using a LUMIstar Optima microplate Luminometer from BMG Labtech.

IC50 [nM] | SMILES
< 100 | CCc1ccccc1-c1cc2ccc(NC(=O)c3ncnn3C)nc2[nH]1 [4/1]
100 to 1000 | Cn1ncnc1C(=O)Nc1ccc2cc(-c3ccccc3C#N)[nH]c2n1 [4/2]
100 to 1000 | Cn1ncnc1C(=O)Nc1ccc2cc(-c3cc(F)ccc3C#N)[nH]c2n1 [4/3]
< 100 | Cn1ccnc1C(=O)Nc1ccc2cc(-c3ccccc3C(F)F)[nH]c2n1 [4/4]
100 to 1000 | Cn1ncnc1C(=O)Nc1ccc2c(F)c(-c3ccccc3C(F)F)[nH]c2n1 [4/6]
< 100 | CCn1ncnc1C(=O)Nc1ccc2cc(-c3ccccc3C(F)F)[nH]c2n1 [4/7]
< 100 | Cn1ncnc1C(=O)Nc1ccc2cc(-c3cc(C#N)ccc3C(F)(F)F)[nH]c2n1 [4/8]
< 100 | Cc1ocnc1C(=O)Nc1ccc2cc(-c3ccccc3C(F)F)[nH]c2n1 [5/1]
< 100 | Cc1scnc1C(=O)Nc1ccc2cc(-c3ccccc3C(F)F)[nH]c2n1 [5/2]
< 100 | Cc1ccccc1-c1cc2ccc(NC(=O)c3ccnn3C)nc2[nH]1 [Example 1, 1-Methyl-N-(2-(o-tolyl)-1H-pyrrolo[2,3-b]pyridin-6-yl)-1H-pyrazole-5-carboxamide]
< 100 | Cn1nccc1C(=O)Nc1ccc2cc(-c3ccccc3C(F)(F)F)[nH]c2n1 [Example 1/1, 1-Methyl-N-(2-(2-(trifluoromethyl)phenyl)-1H-pyrrolo[2,3-b]pyridin-6-yl)-1H-pyrazole-5-carboxamide]
100 to 1000 | Cn1nccc1C(=O)Nc1ccc2cc(-c3cccc(C(F)(F)F)c3)[nH]c2n1 [Example 1/2, 1-Methyl-N-(2-(3-(trifluoromethyl)phenyl)-1H-pyrrolo[2,3-b]pyridin-6-yl)-1H-pyrazole-5-carboxamide]
100 to 1000 | Cn1nccc1C(=O)Nc1ccc2cc(-c3cccnc3C(F)(F)F)[nH]c2n1 [Example 1/3, 1-Methyl-N-(2-(2-(trifluoromethyl)pyridin-3-yl)-1H-pyrrolo[2,3-b]pyridin-6-yl)-1H-pyrazole-5-carboxamide]
> 1000 | Cn1nccc1C(=O)Nc1ccc2cc(-c3ccccc3OC(F)(F)F)[nH]c2n1 [Example 1/4, 1-Methyl-N-(2-(2-(trifluoromethoxy)phenyl)-1H-pyrrolo[2,3-b]pyridin-6-yl)-1H-pyrazole-5-carboxamide]
> 1000 | Cn1nccc1C(=O)Nc1ccc2cc(-c3cccc(OC(F)(F)F)c3)[nH]c2n1 [Example 1/5, 1-Methyl-N-(2-(3-(trifluoromethoxy)phenyl)-1H-pyrrolo[2,3-b]pyridin-6-yl)-1H-pyrazole-5-carboxamide]
< 100 | Cn1ncnc1C(=O)Nc1ccc2cc(-c3ccccc3C(F)(F)F)[nH]c2n1 [Example 1/6, 1-Methyl-N-(2-(2-(trifluoromethyl)phenyl)-1H-pyrrolo[2,3-b]pyridin-6-yl)-1H-1,2,4-triazole-5-carboxamide]
< 100 | O=C(Nc1ccc2cc(-c3ccccc3C(F)(F)F)[nH]c2n1)c1ccccn1 [Example 1/7, N-(2-(2-(Trifluoromethyl)phenyl)-1H-pyrrolo[2,3-b]pyridin-6-yl) picolinamide]
< 100 | O=C(Nc1ccc2cc(-c3ccccc3C(F)(F)F)[nH]c2n1)c1ccccc1F [Example 1/8, 2-Fluoro-N-(2-(2-(trifluoromethyl)phenyl)-1H-pyrrolo[2,3-b]pyridin-6-yl)benzamide]
< 100 | O=C(Nc1ccc2cc(-c3ccccc3C(F)(F)F)[nH]c2n1)c1ccc(F)cc1 [Example 1/9, 4-Fluoro-N-(2-(2-(trifluoromethyl)phenyl)-1H-pyrrolo[2,3-b]pyridin-6-yl)benzamide]
100 to 1000 | O=C(Nc1ccc2cc(-c3ccccc3C(F)(F)F)[nH]c2n1)c1cccnc1 [Example 1/10, N-(2-(2-(Trifluoromethyl)phenyl)-1H-pyrrolo[2,3-b]pyridin-6-yl) nicotinamide]
< 100 | Cn1ncnc1C(=O)Nc1ccc2cc(-c3cccc(F)c3C(F)(F)F)[nH]c2n1 [Example 1/11, N-(2-(3-Fluoro-2-(trifluoromethyl)phenyl)-1H-pyrrolo[2,3-b]pyridin-6-yl)-1-methyl-1H-1,2,4-triazole-5-carboxamide]
